Test results from patent US20040248775A1, “Methods for screening inhibitors of apoptosis” (Wyeth, priority 2003, published 2004).

Biological target: T1, His6-NALP1 NBS mutant (G339E, K340A) (Homo sapiens, UniProt Q9C000, G339E/K340A)
T1 construct: made in house; host or cells: COS-7 cells, transient transfection, Ni-NTA purification
T1 sequence (Q9C000 1-1473 G339E/K340A): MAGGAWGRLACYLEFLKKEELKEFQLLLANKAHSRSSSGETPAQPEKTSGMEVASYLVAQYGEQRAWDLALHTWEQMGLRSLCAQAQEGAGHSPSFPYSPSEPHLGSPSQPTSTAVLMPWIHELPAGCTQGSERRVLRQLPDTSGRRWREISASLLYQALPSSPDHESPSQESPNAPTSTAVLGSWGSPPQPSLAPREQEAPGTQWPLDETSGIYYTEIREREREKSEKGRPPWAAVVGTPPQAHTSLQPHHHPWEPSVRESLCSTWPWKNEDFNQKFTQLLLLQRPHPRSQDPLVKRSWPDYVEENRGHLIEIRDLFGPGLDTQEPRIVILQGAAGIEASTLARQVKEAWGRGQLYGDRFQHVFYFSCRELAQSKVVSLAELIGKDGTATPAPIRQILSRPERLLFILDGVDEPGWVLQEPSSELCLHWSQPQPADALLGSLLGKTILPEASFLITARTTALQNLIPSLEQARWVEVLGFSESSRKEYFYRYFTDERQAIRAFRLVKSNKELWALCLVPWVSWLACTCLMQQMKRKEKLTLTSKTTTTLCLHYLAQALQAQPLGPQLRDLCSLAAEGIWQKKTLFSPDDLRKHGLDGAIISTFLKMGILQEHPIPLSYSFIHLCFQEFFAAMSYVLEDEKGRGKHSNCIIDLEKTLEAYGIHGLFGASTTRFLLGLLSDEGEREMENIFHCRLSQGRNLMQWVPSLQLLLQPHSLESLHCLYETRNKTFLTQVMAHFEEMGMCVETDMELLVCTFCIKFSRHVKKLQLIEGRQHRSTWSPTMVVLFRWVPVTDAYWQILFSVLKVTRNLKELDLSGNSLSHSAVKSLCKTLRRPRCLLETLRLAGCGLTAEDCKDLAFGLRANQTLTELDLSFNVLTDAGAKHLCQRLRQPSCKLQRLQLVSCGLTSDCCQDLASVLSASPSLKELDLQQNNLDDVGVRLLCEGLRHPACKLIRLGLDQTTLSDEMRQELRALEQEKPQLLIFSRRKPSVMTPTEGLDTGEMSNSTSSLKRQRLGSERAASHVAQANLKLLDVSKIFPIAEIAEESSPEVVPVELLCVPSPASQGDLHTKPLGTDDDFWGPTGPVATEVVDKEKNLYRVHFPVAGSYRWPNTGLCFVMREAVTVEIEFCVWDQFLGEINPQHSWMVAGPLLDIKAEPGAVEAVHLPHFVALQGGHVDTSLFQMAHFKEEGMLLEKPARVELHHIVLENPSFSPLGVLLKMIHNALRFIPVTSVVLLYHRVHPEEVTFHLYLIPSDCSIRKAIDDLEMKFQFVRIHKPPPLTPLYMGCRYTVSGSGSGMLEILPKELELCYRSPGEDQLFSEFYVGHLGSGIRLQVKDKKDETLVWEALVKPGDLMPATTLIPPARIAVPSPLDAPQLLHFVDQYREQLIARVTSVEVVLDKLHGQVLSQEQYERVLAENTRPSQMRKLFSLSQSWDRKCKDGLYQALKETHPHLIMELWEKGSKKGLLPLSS
Assay: Ni flashplate dATPα35S binding assay, NBS mutant His6-NALP1
Conditions: 8 nM dATPα35S displaced by non-radiolabeled dATP
Procedure: Production of purified NALP-Flashplate binding assay. NALP1 protein for in vitro binding assays was purified from transiently transfected cells. COS-7 cells were plated in DMEM, 10% fetal calf serum with amino acid supplements and antibiotics and allowed to grow to approximately 50% confluency. Large-scale preparations were performed in Cell Factories (NUNC) with approximately 600 μg plasmid DNA. Polyfect transfection reagent (Qiagen) was used as described by the manufacturer. After 24 hours, cells were collected by trypsinization, washed with fresh medium and then with PBS. Cells were lysed by resuspension in 10× cell volume of lysis buffer (140 mM NaCl, 0.1% Triton-X100, 0.1 mM DTT, 20 mM HEPES at pH 7.4 and protease inhibitor cocktail (Roche Diagnostics BmbH)). Lysates were centrifuged at approximately 7400×g for 30 minutes and supernatants were supplemented with glycerol to a final concentration of 10% and stored at −70° C. until purification. Protein concentrations were measured and samples normalized. Extracts were mixed with 1 ml Ni-NTA agarose equilibrated with the same buffer for 1 hour at 4° C. in the tube. Disposable columns were filled with the resin and flow-through collected. […] Reactions were stopped by aspirating solutions and washed once with Buffer B. Plates were counted in a Top Count scintillation counter (Packard).

specific binding of dATP to NBS mutant NALP1: failed to achieve significant binding
Compound: Nc1ncnc2c1ncn2[C@H]1C[C@H](O)[C@@H](COP(=O)(O)OP(=O)(O)OP(=O)(O)O)O1 [dATP]
